We go through 1 compound from patent US20230172914A1, “BIOMARKER-BASED THERAPEUTIC COMPOSITION” (WELLMARKER BIO CO., LTD., priority 2019, published 2023).

The subject of one assay is KM12C (RONΔ160). Briefly: MTS assay KM12C (Experimental Example 6). It is filed as cell-based. The conditions noted are these: Homo sapiens, 72 hours. As for the experimental part: In MTS assay for Example 18 and Comparative Example 1, KM12C cell line was seeded at 1,000 cells per well into 96-well plates. After 24 hours, the cells were treated with various concentrations (0.000001 uM to 10 uM) of Example 18 and Comparative Example 1 in 100 ul of 10% FBS-MEM medium (Welgene) per well. Subsequently, the cells were incubated for 72 hours. Then, 20 μl of MTS solution (Promega) was added thereto, and incubation was performed for 2 hours. Then, the absorbance was measured at 490 nm. The IC50 values for Example 18 and Comparative Example 1 were calculated using GraphPad Prism™ 5 to investigate cytotoxicity.

For another assay, the target named is T1, RON mutant (Δ160) (Homo sapiens, UniProt Q04912).
T1 construct: expressed in transfected cells; host or cells: Colo320HSR (RON-negative colon cancer cell line)
Briefly: Kinase assay for RON mutant Δ160 in transfected Colo320HSR (immunoprecipitation, Western blotting). It counts as cell-based. The settings on record: Colo320HSR transfected with RONΔ160, 2 hours of drug treatment. As for the experimental part:
As a way capable of replacing RON mutant, each of the mutants (Δ160, Δ155) was transfected into Colo320HSR, a RON-negative cell line, and the cell line was subjected to treatment with Example 18 or Comparative Example 1 at respective concentrations. Then, it was checked, through immunoprecipitation and Western blotting, whether expression of active RON decreases. The detailed method is as follows. The RON-negative Colo320SHR colon cancer cell line was transfected with 12 ug of each of RONΔ160 and RON Δ155 using lipofectamine 2000 (Invitrogen, cat #11668-019). For the same transfection efficiency, after 24 hours, the transformed strains were dispensed into a 60-mm dish. 48 hours after transfection, treatment with drugs of Comparative Example 1 and Example 18 was performed, respectively, in a dose-dependent manner. After 2 hours of drug treatment, the cells were collected and washed with PBS. Then, the washed cells were lysed with RIPA Lysis Buffer (T&I, cat #BRI-9001).
Protein concentrations were quantified using the Bradford (BioRad, cat #5000205) method. […]
Electrophoresis was performed using SDS-PAGE, and then proteins were transferred to PVDF membrane. […] The developed film was analyzed with densitometry using Image-J, and then IC50 was calculated using Graphpad Prism (GraphPad Software, Inc.).

Assay [1] relates to Colo320HSR cell line overexpressing RON mutants (mt #1: Δ160, mt #2: Δ155). In words: Drug efficacy after overexpression of RON mutants in Colo320HSR (trypan blue, Western blotting). It counts as cell-based. As for the experimental part:
Efficacy analysis for RON mutants was performed by overexpressing RON mutants, and then identifying cell death-inducing ability through Western blotting. Colo320HSR cell line was seeded onto a 100-mm plate, and then a RON mutant #1 (Δ160)- or RON mutant #2 (Δ155)-expressing vector was introduced into the cell line using a transfection solution (Polyplus). After 24 hours, the cell line was seeded onto a 60-mm plate at 2×10^5 cells. Then, after 24 hours, while performing medium exchange, the cells were subjected to treatment with Example 18 at respective concentrations (1 μM, 5 μM) for 48 hours.
After 48 hours, the cells and cell suspensions were collected (1,500 rpm, 3 minutes), and live cells and dead cells were quantitated (n=2) through trypan blue exclusion assay. Subsequently, the remaining cells were collected and lysed by adding RIPA Lysis Buffer (T&I) to the respective cells for the purpose of identifying, with Western blotting, inhibitory capacity on active RON and cell death-inducing ability. Then, proteins were quantified by BCA kit (Pierce).
Subsequently, the proteins were reacted with primary antibodies (active RON, cleaved caspase-3, beta actin), which were diluted 1:1,000 in 5% non-fat skim milk-TBST solution, at 4° C. for 24 hours or 48 hours. Then, washing with TBST was performed three times. The resultant was reacted with anti-rabbit and anti-mouse IgG conjugated horseradish peroxidase (HRP) secondary antibodies, which were diluted at 1:1,000, at room temperature for 2 hours. Then, washing with TBST was washed three times. Subsequently, the membrane was treated with the ECL solution (GE Healthcare), and developed by exposure to an X-ray film. Then, the bands were checked.

The test system of the next assay is KM12C cell line tumor. In words: Effective dose concentration in animal model transplanted with KM12C. It counts as in vivo, BALB/c nude mice. The settings on record: once a day for 2 weeks. As for the experimental part:
5-Week-old female BALB/c nude mice were purchased and acclimatized for 1 week. Then, human-derived colon cancer cell line KM12C (1.5×10^6 cells/mice) was diluted in PBS, and injected subcutaneously (100 μl) into the right dorsal side of the mice. Example 18 was orally administered at respective doses when the tumor reached a size of about 100 mm^3. The drug was administered once a day for 2 weeks, and tumor size and body weight were measured twice a week to perform comparative analysis. After completion of the drug administration, the experimental animals were euthanized, and then the tumors were extracted and weighed to perform comparative analysis.

[2] abbreviates: RON mutant-transfected Colo320HSR.

T1 sequence (Q04912 25-1294 isoform Q04912-7 limits assumed): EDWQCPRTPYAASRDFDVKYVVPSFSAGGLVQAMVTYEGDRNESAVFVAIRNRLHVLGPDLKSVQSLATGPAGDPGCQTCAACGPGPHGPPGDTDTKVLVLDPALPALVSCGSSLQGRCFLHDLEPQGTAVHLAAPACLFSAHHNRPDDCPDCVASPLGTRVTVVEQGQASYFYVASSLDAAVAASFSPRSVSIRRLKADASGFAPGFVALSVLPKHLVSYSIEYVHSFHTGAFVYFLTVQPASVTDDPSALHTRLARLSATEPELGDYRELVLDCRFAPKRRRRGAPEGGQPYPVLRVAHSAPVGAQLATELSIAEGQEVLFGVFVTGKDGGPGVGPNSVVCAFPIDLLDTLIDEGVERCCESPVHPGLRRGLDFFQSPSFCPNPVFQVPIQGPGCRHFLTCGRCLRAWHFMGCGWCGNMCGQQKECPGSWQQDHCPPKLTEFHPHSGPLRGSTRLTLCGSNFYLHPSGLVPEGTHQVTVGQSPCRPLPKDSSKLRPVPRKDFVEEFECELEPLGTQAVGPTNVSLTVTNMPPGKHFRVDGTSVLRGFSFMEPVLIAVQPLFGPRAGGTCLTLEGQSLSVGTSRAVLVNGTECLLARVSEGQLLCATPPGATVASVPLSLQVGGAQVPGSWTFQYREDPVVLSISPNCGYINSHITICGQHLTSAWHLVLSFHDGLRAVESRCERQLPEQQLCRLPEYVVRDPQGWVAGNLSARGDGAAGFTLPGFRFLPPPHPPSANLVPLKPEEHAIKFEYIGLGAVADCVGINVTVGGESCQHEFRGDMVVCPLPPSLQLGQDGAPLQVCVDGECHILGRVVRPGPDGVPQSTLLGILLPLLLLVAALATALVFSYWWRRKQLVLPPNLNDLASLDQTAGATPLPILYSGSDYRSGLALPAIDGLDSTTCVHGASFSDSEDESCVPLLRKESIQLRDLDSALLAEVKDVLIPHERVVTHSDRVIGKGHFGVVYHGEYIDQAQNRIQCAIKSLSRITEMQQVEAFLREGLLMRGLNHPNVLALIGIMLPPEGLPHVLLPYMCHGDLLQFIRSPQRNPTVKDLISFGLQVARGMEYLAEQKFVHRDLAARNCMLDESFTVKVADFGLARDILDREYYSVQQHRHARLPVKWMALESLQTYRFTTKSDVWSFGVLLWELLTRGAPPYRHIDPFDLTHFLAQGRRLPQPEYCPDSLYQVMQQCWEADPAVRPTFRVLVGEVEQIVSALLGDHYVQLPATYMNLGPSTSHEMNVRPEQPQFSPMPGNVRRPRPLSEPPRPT
T1 sequence (Q04912 25-304 partner limits assumed): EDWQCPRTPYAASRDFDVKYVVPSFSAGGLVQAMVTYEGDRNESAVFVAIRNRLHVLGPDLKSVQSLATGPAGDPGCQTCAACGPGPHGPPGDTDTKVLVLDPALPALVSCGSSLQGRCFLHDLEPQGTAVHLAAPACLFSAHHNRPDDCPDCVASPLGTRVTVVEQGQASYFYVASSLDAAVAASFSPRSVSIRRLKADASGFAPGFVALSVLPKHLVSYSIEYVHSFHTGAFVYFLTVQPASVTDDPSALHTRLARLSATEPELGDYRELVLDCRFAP

`CCOc1ccn(-c2ccc(F)cc2)c(=O)c1C(=O)Nc1ccc(Oc2ccnc3cc(-c4ccc(CN5CCOCC5)cn4)sc23)c(F)c1.Cl` [Example 18, 4-ethoxy-N-[3-fluoro-4-({2-[5-(morpholinomethyl)pyridin-2-yl]thieno[3,2-b]pyridine-7-yl}oxy)phenyl]-1-(4-fluorophenyl)-2-oxo-1,2-dihydropyridine-3-carboxamide hydrochloride]: in the assay on KM12C (RONΔ160), the IC50 turned out to be 6.9 nM. Further, the “inhibition of RON activity (degree of active RON)” value against RON mutant (Δ160) is recorded as “high inhibition efficacy as compared with Comparative Example 1”. In assay [1] (1 μM, 5 μM, 48 hours, group transfected with RON mutant), the “cell death (trypan blue exclusion assay)” value is reported as “cell death induction at the respective concentrations is observed”. Also, in assay [1] (setting [2]), the “active RON expression level (Western blotting)” value is “decreased expression level” and the “cleaved caspase 3 expression level (Western blotting)” value is given as “increased expression level”. Further, in the assay on KM12C cell line tumor (oral at respective doses), the tumor growth result is “inhibited in a concentration-dependent manner”. In addition, in the assay on KM12C cell line tumor (oral), the effective dose concentration is 5.214 mpk.
